Experimental data: patent US11407740B2 (priority 2018, dated 2022)
Values after ≈ are worked out from the molar mass of the structure shown.

Tested on: E. coli
Assay: Bacterial susceptibility testing, MIC by broth microdilution (CLSI)
Settings: Escherichia coli, read-out: E. coli MIC, broth microdilution, 35° C., 18-24 h

Q: For `COC1CN(Cc2ccc(C#Cc3ccc([C@H](Cc4nc[nH]c(=O)c4O)CN(C)C4CC4)cc3)cc2)C1` (single isomer, unassigned) [Compound 220], which MIC is on record?
A: < 1 µg/mL

Q: How did the MIC turn out when `COC1CN(Cc2ccc(C#Cc3ccc([C@](C)(CNC4CC4)Cc4nc[nH]c(=O)c4O)cc3)cc2)C1` (single isomer, unassigned) [Compound 227] was run?
A: 1 to 8 µg/mL (≈ 2.01 to 16 µM)

Q: With `COC1CN(Cc2ccc(C#Cc3ccc([C@@](C)(CNC4CC4)Cc4nc[nH]c(=O)c4O)cc3)cc2)C1` (single isomer, unassigned) [Compound 228] as the compound, how does the MIC read?
A: < 1 µg/mL

Q: Which MIC does the source give for `O=c1[nH]cnc(C[C@@H](CN2CC(O)C2)c2ccc(C#Cc3ccc(CN4CCOCC4)cc3)cc2)c1O` (single isomer, unassigned) [Compound 229] here?
A: 1 to 8 µg/mL (≈ 2 to 16 µM)

Q: `O=c1[nH]cnc(C[C@H](CN2CC(O)C2)c2ccc(C#Cc3ccc(CN4CCOCC4)cc3)cc2)c1O` (single isomer, unassigned) [Compound 230] was tested. Which MIC did it give?
A: < 1 µg/mL

Q: `N#CC1CN(C[C@H](Cc2nc[nH]c(=O)c2O)c2ccc(C#Cc3ccc(CN4CC[C@H](C#N)C4)cc3)cc2)C1` (single isomer, unassigned) [Compound 235] was tested. Which MIC did it give?
A: < 1 µg/mL

Q: For `N#CC1CN(C[C@@H](Cc2nc[nH]c(=O)c2O)c2ccc(C#Cc3ccc(CN4CC[C@H](C#N)C4)cc3)cc2)C1` (single isomer, unassigned) [Compound 236], which MIC is on record?
A: < 1 µg/mL

Q: `O=c1[nH]cnc(C[C@H](CNCCCF)c2ccc(C#Cc3ccc(CN4CCOCC4)cc3)cc2F)c1O` (single isomer, unassigned) [Compound 237] was tested. Which MIC did it give?
A: < 1 µg/mL

Q: Which MIC does the source give for `COC1CN(Cc2ccc(C#Cc3ccc(C(CN[C@@H](C)CF)Cc4nc[nH]c(=O)c4O)c(F)c3)cc2)C1` (single isomer, unassigned) [Compound 238] here?
A: < 1 µg/mL

Q: Which MIC does the source give for `C[C@@H](CF)NCC(Cc1nc[nH]c(=O)c1O)c1ccc(C#Cc2ccc(CN3CC4COCC4C3)cc2)cc1F` (single isomer, unassigned) [Compound 239] here?
A: < 1 µg/mL

Q: Which MIC does the source give for `O=c1[nH]cnc(C[C@H](CO)c2ccc(C#Cc3ccc(CN(CCO)[C@H]4CCOC4)cc3)cc2)c1O` (single isomer, unassigned) [Compound 243] here?
A: < 1 µg/mL

Q: For `C[C@H](O)CNC[C@@H](Cc1nc[nH]c(=O)c1O)c1ccc(C#Cc2ccc(CN3CCOCC3)cc2)cc1` (single isomer, unassigned) [Compound 245], which MIC is on record?
A: < 1 µg/mL

Q: For `C[C@H](O)CNC[C@H](Cc1nc[nH]c(=O)c1O)c1ccc(C#Cc2ccc(CN3CCOCC3)cc2)cc1` (single isomer, unassigned) [Compound 246], which MIC is on record?
A: 1 to 8 µg/mL (≈ 1.99 to 15.9 µM)

Q: How did the MIC turn out when `C[C@@H](O)CNC[C@H](Cc1nc[nH]c(=O)c1O)c1ccc(C#Cc2ccc(CN3CCOCC3)cc2)cc1` (single isomer, unassigned) [Compound 247] was run?
A: 1 to 8 µg/mL (≈ 1.99 to 15.9 µM)

Q: With `C[C@@H](O)CNC[C@@H](Cc1nc[nH]c(=O)c1O)c1ccc(C#Cc2ccc(CN3CCOCC3)cc2)cc1` (single isomer, unassigned) [Compound 248] as the compound, how does the MIC read?
A: < 1 µg/mL

Q: Which MIC does the source give for `COC1CN(Cc2ccc(C#Cc3ccc([C@H](CNC4(C)CC4)Cc4nc[nH]c(=O)c4O)cc3)cc2)C1` (single isomer, unassigned) [Compound 250] here?
A: < 1 µg/mL

Q: With `COC1CN(Cc2ccc(C#Cc3ccc([C@@H](CNC4(C)CC4)Cc4nc[nH]c(=O)c4O)cc3)cc2)C1` (single isomer, unassigned) [Compound 251] as the compound, how does the MIC read?
A: < 1 µg/mL

Q: With `C[C@@H](CF)NCC(Cc1nc[nH]c(=O)c1O)c1ccc(C#Cc2ccc(C(O)CO)cc2)cc1` (single isomer, unassigned) [Compound 252] as the compound, how does the MIC read?
A: < 1 µg/mL

Q: With `CS(=O)(=O)N1CC[C@@H](NCc2ccc(C#Cc3ccc(C(CO)Cc4nc[nH]c(=O)c4O)cc3)cc2)C1` (single isomer, unassigned) [Compound 254] as the compound, how does the MIC read?
A: < 1 µg/mL

Q: With `O=c1[nH]cnc(C[C@H](CO)c2ccc(C#Cc3ccc(C4(O)CCNCC4)cc3)cc2)c1O` (single isomer, unassigned) [Compound 266] as the compound, how does the MIC read?
A: 1 to 8 µg/mL (≈ 2.24 to 18 µM)

Q: For `O=c1[nH]cnc(C[C@H](CO)c2ccc(C#Cc3ccc(CN(CCO)[C@@H]4CCOC4)cc3)cc2)c1O` (single isomer, unassigned) [Compound 269], which MIC is on record?
A: 1 to 8 µg/mL (≈ 2.04 to 16.3 µM)

Q: `O=c1[nH]cnc(C[C@H](CO)c2ccc(C#Cc3ccc(C(O)CO)cc3)cc2)c1O` (single isomer, unassigned) [Compound 270] was tested. Which MIC did it give?
A: 1 to 8 µg/mL (≈ 2.46 to 19.7 µM)

Q: For `O=c1[nH]cnc(C[C@H](CO)c2ccc(C#Cc3ccc(CN4CC5(CCO5)C4)cc3)cc2F)c1O` (single isomer, unassigned) [Compound 273], which MIC is on record?
A: < 1 µg/mL

Q: For `O=c1[nH]cnc(C[C@H](CN2CC(O)C2)c2ccc(C#Cc3ccc(CN4CCOCC4)cc3F)cc2)c1O` (single isomer, unassigned) [Compound 275], which MIC is on record?
A: < 1 µg/mL

Q: `O=c1[nH]cnc(C[C@H](CN2CC(O)C2)c2ccc(C#Cc3ccc(CN4CCOCC4)c(F)c3)cc2)c1O` (single isomer, unassigned) [Compound 276] was tested. Which MIC did it give?
A: 1 to 8 µg/mL (≈ 1.93 to 15.4 µM)

Q: With `N#CC1CN(Cc2ccc(C#Cc3ccc([C@@H](CNCC(F)F)Cc4nc[nH]c(=O)c4O)c(F)c3)cc2)C1` (single isomer, unassigned) [Compound 279] as the compound, how does the MIC read?
A: < 1 µg/mL

Q: With `C[C@H](CF)NCC(Cc1nc[nH]c(=O)c1O)c1ccc(C#Cc2ccc(CN3CCOCC3)cc2)cc1F` (single isomer, unassigned) [Compound 280] as the compound, how does the MIC read?
A: < 1 µg/mL

Q: How did the MIC turn out when `N#C[C@@H]1CCN(Cc2ccc(C#Cc3ccc([C@@H](CNCC(F)F)Cc4nc[nH]c(=O)c4O)c(F)c3)cc2)C1` (single isomer, unassigned) [Compound 281] was run?
A: < 1 µg/mL

Q: `COC1CN(Cc2ccc(C#Cc3ccc([C@@H](CNCC(F)F)Cc4nc[nH]c(=O)c4O)c(F)c3)cc2)C1` (single isomer, unassigned) [Compound 282] was tested. Which MIC did it give?
A: < 1 µg/mL

Q: `O=c1[nH]cnc(C[C@H](CNCC(F)F)c2ccc(C#Cc3ccc(CN4CCOCC4)cc3)cc2F)c1O` (single isomer, unassigned) [Compound 283] was tested. Which MIC did it give?
A: < 1 µg/mL

Q: How did the MIC turn out when `COC[C@@H](Cc1nc[nH]c(=O)c1O)c1ccc(C#Cc2ccc(CN[C@H]3CCOC3)cc2)cc1` (single isomer, unassigned) [Compound 285] was run?
A: < 1 µg/mL

Q: With `COC[C@@H](Cc1nc[nH]c(=O)c1O)c1ccc(C#Cc2ccc(CN[C@H]3CCNC3)cc2)cc1` (single isomer, unassigned) [Compound 287] as the compound, how does the MIC read?
A: 1 to 8 µg/mL (≈ 2.18 to 17.4 µM)

Q: Which MIC does the source give for `COC[C@@H](Cc1nc[nH]c(=O)c1O)c1ccc(C#Cc2ccc(CN[C@@H]3CCNC3)cc2)cc1` (single isomer, unassigned) [Compound 288] here?
A: 1 to 8 µg/mL (≈ 2.18 to 17.4 µM)

Q: With `CS(=O)(=O)N[C@@H](Cc1nc[nH]c(=O)c1O)c1ccc(C#Cc2ccc(C3(O)CCNCC3)cc2)cc1` (single isomer, unassigned) [Compound 296] as the compound, how does the MIC read?
A: 8 to 32 µg/mL (≈ 15.7 to 62.9 µM)

Q: `CS(=O)(=O)N[C@@H](Cc1nc[nH]c(=O)c1O)c1ccc(C#Cc2ccc(CN3CCNC[C@H]3CO)cc2)cc1` (single isomer, unassigned) [Compound 297] was tested. Which MIC did it give?
A: 8 to 32 µg/mL (≈ 14.9 to 59.5 µM)

Q: Which MIC does the source give for `COC1CN(Cc2ccc(C#Cc3ccc([C@@H](Cc4nc[nH]c(=O)c4O)NS(C)(=O)=O)cc3)cc2)C1` (single isomer, unassigned) [Compound 299] here?
A: < 1 µg/mL

Q: `CN(C[C@@H](Cc1nc[nH]c(=O)c1O)c1ccc(C#Cc2ccc(CN3CCOCC3)cc2)cc1)C1CC1` (single isomer, unassigned) [Compound 302] was tested. Which MIC did it give?
A: < 1 µg/mL

Q: For `CC(=O)NC[C@@H](Cc1nc[nH]c(=O)c1O)c1ccc(C#Cc2ccc(CN3CCOCC3)cc2)cc1` (single isomer, unassigned) [Compound 303], which MIC is on record?
A: < 1 µg/mL

Q: Which MIC does the source give for `CS(=O)(=O)NC[C@@H](Cc1nc[nH]c(=O)c1O)c1ccc(C#Cc2ccc(CN3CCOCC3)cc2)cc1` (single isomer, unassigned) [Compound 304] here?
A: < 1 µg/mL

Q: `CC(C)(O)C(Cc1nc[nH]c(=O)c1O)c1ccc(C#Cc2ccc(CN3CCOCC3)cc2)cc1` (stereo not shown) [Compound 1] was tested. Which MIC did it give?
A: 1 to 8 µg/mL (≈ 2.11 to 16.9 µM)

Q: Which MIC does the source give for `O=c1[nH]cnc(CC(CO)c2ccc(C#Cc3ccc(CN4CCOCC4)cc3)cc2)c1O` (stereo not shown) [Compound 2] here?
A: < 1 µg/mL

Q: With `O=c1[nH]cnc(CC(CNCCF)c2ccc(C#Cc3ccc(CN4CCOCC4)cc3)cc2)c1O` (stereo not shown) [Compound 6] as the compound, how does the MIC read?
A: 1 to 8 µg/mL (≈ 2.04 to 16.3 µM)

Q: How did the MIC turn out when `CC(O)C(Cc1nc[nH]c(=O)c1O)c1ccc(C#Cc2ccc(CN3CCOCC3)cc2)cc1` (stereo not shown) [Compound 12] was run?
A: 1 to 8 µg/mL (≈ 2.18 to 17.4 µM)

Q: With `NCC(Cc1nc[nH]c(=O)c1O)c1ccc(C#Cc2ccc(CN3CCOCC3)cc2)cc1` (stereo not shown) [Compound 18] as the compound, how does the MIC read?
A: 1 to 8 µg/mL (≈ 2.25 to 18 µM)

Q: `O=C(NCCF)C(Cc1nc[nH]c(=O)c1O)c1ccc(C#Cc2ccc(CN3CCOCC3)cc2)cc1` (stereo not shown) [Compound 19] was tested. Which MIC did it give?
A: < 1 µg/mL

Q: Which MIC does the source give for `O=C(NCC(F)F)C(Cc1nc[nH]c(=O)c1O)c1ccc(C#Cc2ccc(CN3CCOCC3)cc2)cc1` (stereo not shown) [Compound 22] here?
A: < 1 µg/mL

Q: `CNC(=O)C(Cc1nc[nH]c(=O)c1O)c1ccc(C#Cc2ccc(CN3CCOCC3)cc2)cc1` (stereo not shown) [Compound 23] was tested. Which MIC did it give?
A: < 1 µg/mL

Q: With `COC(=O)C(Cc1nc[nH]c(=O)c1O)c1ccc(C#Cc2ccc(CN3CCOCC3)cc2)cc1` (stereo not shown) [Compound 24] as the compound, how does the MIC read?
A: < 1 µg/mL

Q: With `O=C(NC1CC(F)(F)C1)C(Cc1nc[nH]c(=O)c1O)c1ccc(C#Cc2ccc(CN3CCOCC3)cc2)cc1` (stereo not shown) [Compound 25] as the compound, how does the MIC read?
A: 1 to 8 µg/mL (≈ 1.82 to 14.6 µM)

Q: With `CCOC(=O)C(Cc1nc[nH]c(=O)c1O)c1ccc(C#Cc2ccc(CNC3CCOC3)cc2)cc1` (stereo not shown) [Compound 26] as the compound, how does the MIC read?
A: 1 to 8 µg/mL (≈ 2.05 to 16.4 µM)

Q: `COC(=O)C(Cc1nc[nH]c(=O)c1O)c1ccc(C#Cc2ccc(CNC3CCOC3)cc2)cc1` (stereo not shown) [Compound 27] was tested. Which MIC did it give?
A: 1 to 8 µg/mL (≈ 2.11 to 16.9 µM)

Q: With `CC(C#N)NC(=O)C(Cc1nc[nH]c(=O)c1O)c1ccc(C#Cc2ccc(CN3CCOCC3)cc2)cc1` (stereo not shown) [Compound 28] as the compound, how does the MIC read?
A: 1 to 8 µg/mL (≈ 1.95 to 15.6 µM)

Q: For `O=C(NCC(F)F)C(Cc1nc[nH]c(=O)c1O)c1ccc(C#Cc2ccc(Cn3ccnc3CO)cc2)cc1` (stereo not shown) [Compound 29], which MIC is on record?
A: < 1 µg/mL

Q: How did the MIC turn out when `CC(CO)(Cc1nc[nH]c(=O)c1O)c1ccc(C#Cc2ccc(CN3CCOCC3)cc2)cc1` (stereo not shown) [Compound 31] was run?
A: < 1 µg/mL

Same assay, conditions: broth microdilution, 35° C., 18-24 h

Q: `CC(=O)N1CC[C@@H](NCc2ccc(C#Cc3ccc(C(CO)Cc4nc[nH]c(=O)c4O)cc3)cc2)C1` (single isomer, unassigned) [Compound 233] was tested. Which “E. coli MIC” value did it give?
A: B (B: >1 μg/mL to ≤8.0 μg/mL)

Q: `CC(=O)N1CC[C@@H](NCc2ccc(C#Cc3ccc(C(CO)Cc4nc[nH]c(=O)c4O)cc3)cc2)C1` (single isomer, unassigned) [Compound 234] was tested. Which “E. coli MIC” value did it give?
A: A (A: ≤1 μg/mL)

Q: Which “E. coli MIC” value does the source give for `O=C(NCCF)C(Cc1nc[nH]c(=O)c1O)c1ccc(C#Cc2ccc(CN3CCOCC3)cc2)cc1` (stereo not shown) [Compound 20] here?
A: A (A: ≤1 μg/mL)

Q: `O=C(NCCF)C(Cc1nc[nH]c(=O)c1O)c1ccc(C#Cc2ccc(CN3CCOCC3)cc2)cc1` (stereo not shown) [Compound 21] was tested. Which “E. coli MIC” value did it give?
A: B (B: >1 μg/mL to ≤8.0 μg/mL)
